Results on four molecules are retold here after paper PMC9572452, “Inhibition of α-Glucosidase and Pancreatic Lipase Properties of Mitragyna speciosa (Korth.) Havil. (Kratom) Leaves” (Nutrients, 2022).

The term IC50 denotes the concentration needed to halve the response being measured. Low values mean greater potency in that assay, high ones weaker potency in that assay. The term Ki denotes a dissociation constant, usually derived from enzyme kinetics or from competition with a known ligand. Read a high Ki as weaker binding.

SMILES strings stand for the structures. Where “and” joins values, the source holds several entries; their conditions need not be identical. Equal entries are not always repeated. Entries after “also recorded” stand apart in the source; their conditions may differ.

One assay has as its system μ-opioid receptors. The arrangement: method as in PMID 27192616. The following applies: cited from earlier work.
The target in assay [1] is T1, α-glucosidase (Saccharomyces cerevisiae, UniProt P53341). The assay is described as follows: α-glucosidase inhibition and kinetics, pNPG substrate. The format is biochemical. The conditions noted are these: Lineweaver–Burk plots. The procedure:
The assay was performed as described previously with some modifications. The kinetic parameters (Michaelis–Menten constant; Km and maximum velocity; Vmax) of α-glucosidase were determined by using p-nitrophenol-α-D-glucopyranoside (pNPG) as a substrate. Briefly, 0.1 unit of α-glucosidase (Sigma-Aldrich, St Louis, MO, USA) were incubated at 37 °C with 100 µL of total reaction. After 10 min, the reactions were started by adding 50 µL pNPG (Sigma-Aldrich, St Louis, MO, USA, lot number 3698310) ranging from 0 to 15 mM, and the p-nitrophenol product was measured at 405 nm using a microplate reader (Multiskan SkyHigh, Thermo Scientific, Göteborg, Sweden). The substrate concentration rates were plotted against pNPG concentrations and fitted to the Michaelis–Menten equation.
The IC50 was determined by comparing the rate of each test inhibitor concentration to that of the vehicle control (ethanol), and the IC50 was calculated by plotting the remaining activity of each inhibitor concentration to the log test inhibitor concentration. […] After co-incubation with each inhibitor for 5 min at 37 °C, the reactions were initiated by adding the p-NPG substrate (0–15 mM). The inhibition constant (Ki) values were determined from Lineweaver–Burk Plots.

Assay [2] addresses T1, α-glucosidase. Kind of assay: combination of kratom extracts or mitragynine with acarbose on α-glucosidase. Type of assay: biochemical. The procedure: After 10 min, the residual reactions were started by the addition of 50 µL of 0.3 mM pNPG. The reactions were left to proceed for 10 min. The absorption at 405 nm was then measured using a microplate reader, and IC50 values were calculated by GraphPad Prism version 9.3.1.

The target of another assay is T2, pancreatic lipase (Sus scrofa, UniProt P00591).
T2 construct: purchased Sigma-Aldrich
T2 sequence (P00591 1-450): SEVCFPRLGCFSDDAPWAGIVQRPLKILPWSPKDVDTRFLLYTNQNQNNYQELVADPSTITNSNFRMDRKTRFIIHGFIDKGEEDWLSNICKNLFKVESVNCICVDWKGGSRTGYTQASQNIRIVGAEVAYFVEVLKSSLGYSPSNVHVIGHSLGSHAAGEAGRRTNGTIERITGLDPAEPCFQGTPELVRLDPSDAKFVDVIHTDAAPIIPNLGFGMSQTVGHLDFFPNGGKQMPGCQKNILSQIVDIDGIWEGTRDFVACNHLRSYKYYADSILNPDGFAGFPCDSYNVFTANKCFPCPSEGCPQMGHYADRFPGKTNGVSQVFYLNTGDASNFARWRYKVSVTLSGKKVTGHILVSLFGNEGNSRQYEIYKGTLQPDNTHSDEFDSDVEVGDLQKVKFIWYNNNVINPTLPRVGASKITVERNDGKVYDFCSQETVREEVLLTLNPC
The assay is described as follows: pancreatic lipase inhibition and kinetics, 4MUO substrate. Type of assay: biochemical. The conditions noted are these: for Pancreatic Lipase mode of inhibition: Lineweaver–Burk plots. On the procedure:
The kinetic parameters (Km and Vmax) of pancreatic lipase were determined using 4-methylumbelliferyl oleate (4MUO) as the substrate (Sigma-Aldrich, St Louis, MO, USA, Lot number BCCF8781). Briefly, 0.5 units of lipase (Sigma-Aldrich, St Louis, MO, USA, Lot number SLCG8579) were incubated in 96-well plates with a total volume of 100 µL (15 mM Tris-HCl buffer, pH 8.0) at 37 °C for 10 min. The reactions were initiated by adding 50 µL of 4MUO ranging from 0 to 5 mM. […] The rates at which substrate concentrations were plotted against 4MUO concentrations and fitted to the Michaelis–Menten equation. […] After 10 min, the reactions were started by adding 0.35 mM 4MUO. The reaction rates were monitored by measuring the release of 4MU from 4MUO. […] The remaining activity of lipase was determined by comparing the rate of each test inhibitor concentration to the vehicle control (ethanol), and IC50 was calculated by plotting the remaining activity of each inhibitor concentration to the log test inhibitor concentration.

Another assay concerns lipase. The arrangement: method as in PMID 29292744. The following applies: therapeutic oral dose of 120 mg three times per day; cited from earlier work.

T1 sequence (P53341 whole entry): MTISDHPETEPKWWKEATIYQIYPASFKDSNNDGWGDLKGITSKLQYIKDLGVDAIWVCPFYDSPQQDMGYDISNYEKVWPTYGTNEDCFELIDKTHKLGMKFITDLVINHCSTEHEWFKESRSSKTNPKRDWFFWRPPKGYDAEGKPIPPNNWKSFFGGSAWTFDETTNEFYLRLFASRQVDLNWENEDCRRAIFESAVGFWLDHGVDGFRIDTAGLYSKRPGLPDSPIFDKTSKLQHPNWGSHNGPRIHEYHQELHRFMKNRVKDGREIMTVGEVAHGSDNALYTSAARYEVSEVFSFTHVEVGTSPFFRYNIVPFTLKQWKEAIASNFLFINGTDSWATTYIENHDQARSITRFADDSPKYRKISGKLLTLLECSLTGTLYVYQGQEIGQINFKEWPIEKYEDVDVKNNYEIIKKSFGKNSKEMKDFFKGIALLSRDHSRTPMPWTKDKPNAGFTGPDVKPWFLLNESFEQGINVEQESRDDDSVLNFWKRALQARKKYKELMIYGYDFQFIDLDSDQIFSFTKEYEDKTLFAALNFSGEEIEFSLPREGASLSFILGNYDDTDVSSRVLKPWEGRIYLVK

Turning to `CC[C@@H]1CN2CC[C@@]3(O)C(=Nc4cccc(OC)c43)[C@@H]2C[C@@H]1/C(=C\OC)C(=O)OC` [7-hydroxymitragynine], in the assay with μ-opioid receptors, the “analgesic activity, fold higher than that of mitragynine” value is on record as 16 fold.
For the molecule `C[C@H]1O[C@H](O[C@H]2[C@H](O)[C@@H](O)[C@@H](O[C@H]3[C@H](O)[C@@H](O)C(O)O[C@@H]3CO)O[C@@H]2CO)[C@H](O)[C@@H](O)[C@@H]1N[C@H]1C=C(CO)[C@@H](O)[C@H](O)[C@H]1O` (stereo partly shown) [Acarbose, reference compound], the “α-Glucosidase mode of inhibition” value at α-glucosidase [1] is given as “mixed-type”; on α-glucosidase [1] (listed as acarbose) it was “mixed-type inhibition mode”.
On to `CC[C@@H]1CN2CCc3c([nH]c4cccc(OC)c34)[C@@H]2C[C@@H]1/C(=C\OC)C(=O)OC` [Mitragynine], for which the “potency of combination with acarbose compared with kratom extract combinations” value at α-glucosidase [2] (mitragynine 100 µM with acarbose) is “less potency than that of kratom extracts”. Further, the “IC50 of combination with acarbose compared with kratom extract combinations” value at α-glucosidase [2] (mitragynine 200 and 300 µM with acarbose) is “decreased IC50 values compared with that of mixed kratom extracts”. For the same molecule, the “interaction with acarbose in α-glucosidase inhibition” value on α-glucosidase [2] (mitragynine combined with acarbose) is “synergistic interaction; also recorded: synergistic effect”. Further, at pancreatic lipase, the “pancreatic lipase IC50, fold higher than that of orlistat” value turned out to be 30 fold. The IC50 at pancreatic lipase (0.35 mM 4MUO, 37 °C, mean ± SD, n = 3) is 24.9 µM and 24.7 µM. For the same molecule, the “Pancreatic Lipase mode of inhibition” value at pancreatic lipase is listed as “competitive”; on pancreatic lipase (listed as mitragynine) it was “competitive inhibitors; also recorded: competitive mode”. This molecule had a Ki at pancreatic lipase (from Lineweaver–Burk plots, 4MUO substrate) of 14.9 µM. The “α-Glucosidase mode of inhibition” value at α-glucosidase [1] is listed as “noncompetitive”; on α-glucosidase [1] (listed as mitragynine), “noncompetitive inhibitor; also recorded: noncompetitive mode”.
`CCCCCCCCCCC[C@@H](C[C@@H]1OC(=O)[C@H]1CCCCCC)OC(=O)[C@H](CC(C)C)NC=O` [Orlistat, reference compound]: the “Pancreatic Lipase mode of inhibition” value was “competitive” on pancreatic lipase and “competitive inhibitors; also recorded: competitive mode” on pancreatic lipase (listed as orlistat). Besides, the “reduction of dietary fat absorption” value with lipase is on record as “one-third”.
